Results published in patent US8691829B2, “Treatment of liver disorders with PI3K inhibitors” (Gilead Calistoga LLC, priority 2009, dated 2014).

Columns and labels:
[1] = target: PI3Kα (Homo sapiens (Human), UniProt P42336); assay: Selectivity of selected PI3K inhibitors (α/δ); format: biochemical; settings: ratio PI3Kα relative to PI3Kδ
Source text: (§1) The compounds of formula (3) are readily prepared from available starting material using methods that are known in the art. […] Scheme A in that application provides a route by which the thienopyrimidinone portions of compounds of formula (2a) can be prepared, and Schemes B-G provide routes by which the thienopyrimidinone portions of compounds of formula (2b) can be prepared. […] These references also provide methods for determining the activity of these compounds as inhibitors of PI3Kδ; thus those methods are known in the art.

[2] = target: PI3Kδ (Homo sapiens (Human), UniProt O00329); assay: Activity of selected PI3K inhibitors, Ki (PI3Kδ); format: biochemical
Chain of PI3Kδ (O00329 whole entry, species assumed): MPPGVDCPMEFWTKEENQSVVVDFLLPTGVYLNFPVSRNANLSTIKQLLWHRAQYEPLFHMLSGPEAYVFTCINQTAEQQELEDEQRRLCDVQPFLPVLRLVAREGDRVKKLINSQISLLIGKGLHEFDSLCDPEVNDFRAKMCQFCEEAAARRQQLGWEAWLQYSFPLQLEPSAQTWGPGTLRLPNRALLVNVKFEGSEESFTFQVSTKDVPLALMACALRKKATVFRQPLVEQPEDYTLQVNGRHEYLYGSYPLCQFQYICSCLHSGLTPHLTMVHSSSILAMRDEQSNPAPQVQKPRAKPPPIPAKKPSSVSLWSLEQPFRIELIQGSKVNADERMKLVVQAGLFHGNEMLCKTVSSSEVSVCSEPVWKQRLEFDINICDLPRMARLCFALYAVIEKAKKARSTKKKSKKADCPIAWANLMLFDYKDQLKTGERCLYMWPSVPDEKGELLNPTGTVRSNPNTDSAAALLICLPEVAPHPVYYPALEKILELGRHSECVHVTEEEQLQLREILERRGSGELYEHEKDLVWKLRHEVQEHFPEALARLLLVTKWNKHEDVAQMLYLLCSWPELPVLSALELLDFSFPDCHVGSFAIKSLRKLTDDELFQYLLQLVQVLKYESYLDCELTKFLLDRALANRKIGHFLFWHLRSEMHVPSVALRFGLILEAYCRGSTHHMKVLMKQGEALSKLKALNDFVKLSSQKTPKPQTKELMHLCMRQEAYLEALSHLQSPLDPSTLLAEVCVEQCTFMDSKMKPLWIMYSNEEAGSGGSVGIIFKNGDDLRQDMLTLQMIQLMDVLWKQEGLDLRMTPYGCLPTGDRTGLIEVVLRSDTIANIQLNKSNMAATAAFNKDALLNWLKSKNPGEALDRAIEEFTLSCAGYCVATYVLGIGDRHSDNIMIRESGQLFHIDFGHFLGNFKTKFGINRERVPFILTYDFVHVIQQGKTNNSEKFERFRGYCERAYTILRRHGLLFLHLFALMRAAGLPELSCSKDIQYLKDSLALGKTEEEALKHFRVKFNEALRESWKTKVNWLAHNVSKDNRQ
Chain of PI3Kδ (P27986 whole entry partner, species assumed): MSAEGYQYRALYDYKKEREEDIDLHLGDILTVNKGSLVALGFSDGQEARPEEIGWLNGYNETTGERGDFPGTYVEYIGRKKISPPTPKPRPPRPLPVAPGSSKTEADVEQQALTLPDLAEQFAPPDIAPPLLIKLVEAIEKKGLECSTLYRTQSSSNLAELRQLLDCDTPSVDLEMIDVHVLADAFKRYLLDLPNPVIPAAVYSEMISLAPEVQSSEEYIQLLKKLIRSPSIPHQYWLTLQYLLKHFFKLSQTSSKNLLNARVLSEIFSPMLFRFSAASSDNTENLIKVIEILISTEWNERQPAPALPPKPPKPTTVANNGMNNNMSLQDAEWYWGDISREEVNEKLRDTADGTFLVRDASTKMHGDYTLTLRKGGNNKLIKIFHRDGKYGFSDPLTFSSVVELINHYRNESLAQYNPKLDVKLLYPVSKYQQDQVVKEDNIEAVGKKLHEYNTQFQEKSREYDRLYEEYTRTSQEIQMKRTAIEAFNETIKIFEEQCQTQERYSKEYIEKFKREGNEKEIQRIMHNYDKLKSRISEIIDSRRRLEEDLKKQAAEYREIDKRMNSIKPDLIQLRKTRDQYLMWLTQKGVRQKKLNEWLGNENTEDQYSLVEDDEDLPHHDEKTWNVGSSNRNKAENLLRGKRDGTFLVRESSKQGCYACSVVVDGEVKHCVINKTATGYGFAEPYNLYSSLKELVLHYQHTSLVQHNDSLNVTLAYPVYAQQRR
Source text: as §1

[3] = target: PI3Kβ (Homo sapiens (Human), UniProt P42338); assay: Selectivity of selected PI3K inhibitors (β/δ); format: biochemical; settings: ratio PI3Kβ relative to PI3Kδ
Chain of PI3Kβ (P42338 whole entry, species assumed): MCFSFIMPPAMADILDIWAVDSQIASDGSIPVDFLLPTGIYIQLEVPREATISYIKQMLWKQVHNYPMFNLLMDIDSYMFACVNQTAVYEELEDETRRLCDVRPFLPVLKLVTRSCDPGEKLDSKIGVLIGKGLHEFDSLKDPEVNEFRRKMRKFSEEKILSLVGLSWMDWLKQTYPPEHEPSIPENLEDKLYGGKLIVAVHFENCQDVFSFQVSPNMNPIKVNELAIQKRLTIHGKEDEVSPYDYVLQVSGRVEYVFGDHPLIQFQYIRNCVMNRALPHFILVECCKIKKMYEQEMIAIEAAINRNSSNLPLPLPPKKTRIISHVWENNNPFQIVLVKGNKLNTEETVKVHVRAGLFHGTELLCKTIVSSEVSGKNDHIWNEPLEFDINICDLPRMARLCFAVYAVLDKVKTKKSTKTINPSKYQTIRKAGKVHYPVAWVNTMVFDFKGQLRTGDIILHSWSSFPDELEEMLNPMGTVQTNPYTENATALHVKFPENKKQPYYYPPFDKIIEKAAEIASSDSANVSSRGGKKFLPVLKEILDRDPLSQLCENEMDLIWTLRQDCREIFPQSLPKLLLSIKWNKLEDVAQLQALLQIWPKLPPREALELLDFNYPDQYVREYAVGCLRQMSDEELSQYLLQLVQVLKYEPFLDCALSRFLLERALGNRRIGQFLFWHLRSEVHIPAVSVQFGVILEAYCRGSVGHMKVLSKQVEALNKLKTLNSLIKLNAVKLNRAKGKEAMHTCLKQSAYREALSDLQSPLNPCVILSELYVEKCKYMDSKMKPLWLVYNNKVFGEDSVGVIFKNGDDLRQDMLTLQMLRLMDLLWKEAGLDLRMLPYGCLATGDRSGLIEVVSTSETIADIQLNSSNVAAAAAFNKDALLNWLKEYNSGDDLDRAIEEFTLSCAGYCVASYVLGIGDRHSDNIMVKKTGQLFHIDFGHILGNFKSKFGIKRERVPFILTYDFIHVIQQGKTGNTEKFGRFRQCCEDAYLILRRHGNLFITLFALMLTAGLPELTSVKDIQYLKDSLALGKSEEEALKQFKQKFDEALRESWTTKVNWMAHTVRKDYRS
Chain of PI3Kβ (P27986 whole entry partner, species assumed): as the sequence (P27986 whole entry partner, species assumed) above
Source text: as §1

[4] = target: PI3Kγ (Homo sapiens (Human), UniProt P48736); assay: Selectivity of selected PI3K inhibitors (γ/δ); format: biochemical; settings: ratio PI3Kγ relative to PI3Kδ
Chain of PI3Kγ (P48736 whole entry, species assumed): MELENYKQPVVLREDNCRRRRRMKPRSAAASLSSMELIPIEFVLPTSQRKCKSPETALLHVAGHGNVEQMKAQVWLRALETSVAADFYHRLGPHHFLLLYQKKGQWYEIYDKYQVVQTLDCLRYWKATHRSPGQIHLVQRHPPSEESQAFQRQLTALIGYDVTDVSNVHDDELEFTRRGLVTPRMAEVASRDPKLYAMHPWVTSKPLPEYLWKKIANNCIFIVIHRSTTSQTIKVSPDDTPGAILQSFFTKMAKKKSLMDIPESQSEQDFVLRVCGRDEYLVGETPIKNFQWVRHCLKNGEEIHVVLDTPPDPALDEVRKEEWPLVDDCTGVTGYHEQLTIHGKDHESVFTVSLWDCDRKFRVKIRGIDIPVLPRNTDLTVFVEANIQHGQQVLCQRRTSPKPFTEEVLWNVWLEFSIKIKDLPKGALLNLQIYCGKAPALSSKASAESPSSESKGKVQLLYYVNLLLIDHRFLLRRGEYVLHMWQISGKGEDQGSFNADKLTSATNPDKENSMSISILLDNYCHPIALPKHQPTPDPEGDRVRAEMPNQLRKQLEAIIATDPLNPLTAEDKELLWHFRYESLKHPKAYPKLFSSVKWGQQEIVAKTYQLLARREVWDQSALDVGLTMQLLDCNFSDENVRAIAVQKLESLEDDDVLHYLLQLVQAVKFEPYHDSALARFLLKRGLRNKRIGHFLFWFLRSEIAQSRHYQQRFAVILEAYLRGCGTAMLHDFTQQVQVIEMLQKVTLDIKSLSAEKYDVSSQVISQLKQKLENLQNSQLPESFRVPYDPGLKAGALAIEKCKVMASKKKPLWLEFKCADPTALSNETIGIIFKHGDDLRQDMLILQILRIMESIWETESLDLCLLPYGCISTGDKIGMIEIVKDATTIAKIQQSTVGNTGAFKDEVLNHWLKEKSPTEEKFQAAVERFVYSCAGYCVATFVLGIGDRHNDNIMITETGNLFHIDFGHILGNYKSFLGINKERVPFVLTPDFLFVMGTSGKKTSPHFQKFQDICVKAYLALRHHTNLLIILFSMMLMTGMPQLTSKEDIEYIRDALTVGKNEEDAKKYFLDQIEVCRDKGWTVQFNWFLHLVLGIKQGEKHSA
Source text: as §1

[5] = tested on: hepatocytes; settings: hepatocytes exposed to conditions that generate reactive oxygen species; Kohli et al. 2007; cited from earlier work
[6] = tested on: steatosis development; settings: diet-induced p85 expression and steatosis; Kohli et al. 2007; cited from earlier work

Chain of PI3Kα (P42336 whole entry, species assumed): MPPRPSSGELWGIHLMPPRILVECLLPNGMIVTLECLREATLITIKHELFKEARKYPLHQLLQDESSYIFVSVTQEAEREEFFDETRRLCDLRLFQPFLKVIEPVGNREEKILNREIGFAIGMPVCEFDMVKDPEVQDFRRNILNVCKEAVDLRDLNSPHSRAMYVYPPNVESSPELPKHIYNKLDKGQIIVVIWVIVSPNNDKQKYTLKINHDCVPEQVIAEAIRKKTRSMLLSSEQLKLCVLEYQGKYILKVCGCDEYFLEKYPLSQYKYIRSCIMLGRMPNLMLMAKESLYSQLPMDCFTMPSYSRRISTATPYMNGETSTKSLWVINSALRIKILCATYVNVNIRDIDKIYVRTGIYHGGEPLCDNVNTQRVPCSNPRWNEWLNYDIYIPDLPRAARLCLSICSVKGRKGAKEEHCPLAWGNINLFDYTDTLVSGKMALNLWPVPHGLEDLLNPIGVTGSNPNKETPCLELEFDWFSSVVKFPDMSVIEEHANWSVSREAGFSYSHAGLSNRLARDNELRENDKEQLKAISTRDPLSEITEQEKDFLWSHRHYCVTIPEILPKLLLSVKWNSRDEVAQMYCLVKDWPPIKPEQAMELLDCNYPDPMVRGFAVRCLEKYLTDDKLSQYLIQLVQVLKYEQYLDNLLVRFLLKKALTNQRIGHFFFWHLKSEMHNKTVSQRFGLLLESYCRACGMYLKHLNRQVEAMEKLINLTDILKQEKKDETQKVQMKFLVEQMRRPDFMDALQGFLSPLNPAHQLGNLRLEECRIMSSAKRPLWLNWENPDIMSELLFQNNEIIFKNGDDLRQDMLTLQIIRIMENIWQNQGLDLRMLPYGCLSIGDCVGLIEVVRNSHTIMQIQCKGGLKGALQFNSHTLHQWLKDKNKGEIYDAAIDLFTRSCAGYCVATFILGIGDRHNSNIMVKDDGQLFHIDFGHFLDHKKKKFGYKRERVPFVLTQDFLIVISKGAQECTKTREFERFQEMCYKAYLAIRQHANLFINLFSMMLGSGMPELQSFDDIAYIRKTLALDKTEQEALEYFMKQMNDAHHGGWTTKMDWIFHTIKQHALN
Chain of PI3Kα (P27986 whole entry partner, species assumed): as the sequence (P27986 whole entry partner, species assumed) above

| SMILES | Selectivity (α/δ) [1] | Ki [2] [nM] | Selectivity (β/δ) [3] | Selectivity (γ/δ) [4] | steatosis (accumulation of fat) in hepatocytes [5] | steatosis development [6] |
| --- | --- | --- | --- | --- | --- | --- |
| Cc1cccc2nc(C(C)Nc3ncnc4[nH]cnc34)n(-c3ccccc3)c(=O)c12 (stereo not drawn) [4b] | 132 | 5 | 29 | 12 | – | – |
| CC(c1nc2ccsc2c(=O)n1-c1ccccc1)n1cnc2c(N)ncnc21 (stereo not drawn) [3d] | 1447 | 40 | 126 | 187 | – | – |
| Cc1cccc2nc(C(C)n3cnc4c(N)ncnc43)n(-c3ccccc3)c(=O)c12 (stereo not drawn) [4a] | 2963 | 7 | 119 | 61 | – | – |
| CC(Nc1ncnc2[nH]cnc12)c1nc2ccsc2c(=O)n1-c1ccccc1 (stereo not drawn) [3e] | 528 | 6 | 123 | 28 | – | – |
| O=c1cc(N2CCOCC2)oc2c(-c3ccccc3)cccc12 [LY294002] | – | – | – | – | can be inhibited | blocked steatosis development |
